Laboratory results taken from patent publication US9789101B2, “Methods and compositions for treating microbial infection using pyrroloquinone” (HELPERBY THERAPEUTICS LIMITED, priority 2010, dated 2017).
Blank lines part the entries; values can stand above or below the compound they belong to.

How the values were obtained:
[1] = tested on: log phase Staphylococcus aureus; test: Chequerboard analysis of HT00800059 with HT230 or HT281 against log phase Staphylococcus aureus; type: cell-based, Staphylococcus aureus (Oxford); conditions: for optical density reading at 405 nm: HT00800059 μg/ml: 1024,512,256,128,64,32,16,0, 24 hours; for MIC: Staphylococcus aureus, summary list, read-out: alone MIC
Description: (§1) Staphylococcus aureus (Oxford); Gram positive; Reference strain.
(§2) Log phase growth of methicilin sensitive Staphylococcus aureus (MSSA) was carried out as follows: • Bacteria were grown in 10 ml of nutrient broth (No. 2, (Oxoid)) overnight at 37° C. with continuous shaking at 120 rpm. The overnight cultures were diluted 1000× with iso-sensitest broth. The cultures were incubated at 37° C. with shaking for 1-2 hours to reach log CFU 6. Viability of the bacteria was estimated by colony forming unit (CFU) counts. From serial 10-fold dilutions of the experimental cultures, 100 μl samples were added to triplicate plates of nutrient agar plates (Oxoid) or blood agar plates (Oxoid). CFUs were counted after incubation of the plates at 37° C. for 24 hours.
(§3) Bacterial cultures: 10 μl of overnight cultures was added to 10 ml of fresh iso-sensitest broth to make the inoculation to 10^6 CFU/ml. 290 μl of the cell suspension was added to each well of the 96 well plate, which was incubated at 37° C. for 24 hours. 300 μl of iso-sensitest broth without bacterial cells were added to wells of the plate as a no bacterial control.
(§4) MIC determination: The optical density of the bacterial cells was read at 405 nm using a plate reader (Bio TEK). The MIC concentration was determined as the lowest concentration of drug which inhibits the bacterial growth.
HT230 was dissolved in DMSO to the stock concentration of 10 mg/ml.
HT281 was dissolved in DMSO to the stock concentration of 10 mg/ml.
(§5) HT00800059 was dissolved in H2O to the stock solution 30.07 mg/ml.
HT230 or HT281 (10 mg/ml) was firstly diluted to 0.96 mg/ml, then a serial of 2 fold dilution was carried out.
This was followed by the addition of 280 μl of log phase culture at 10^6 CFU/ml to make the final concentrations of each drug as shown.
In the above table, values in bold text are for HT00800059. Values in plain text are for HT230 or HT281. The numbers shown in each well are μg/ml.
Incubation of the compounds with the bacterial suspension was carried out for 24 hours. The kill effects of the drug combination were measured by optical density reading at 405 nm with a plate reader (Bio TEK).
(§6) The fractional inhibitory concentration (FIC) index was carried out as follows: (MIC of drug A, tested in combination)/(MIC of drug A, tested alone)+(MIC of drug B, tested in combination)/(MIC of drug B, tested alone). The interaction was defined as synergistic if the FIC index was <1, additive if the FIC index was =1 and antagonistic if the FIC index was >1.

[2] = tested on: clinically latent microorganisms; test: Screening for ability to kill clinically latent microorganisms (method of WO2000028074); type: cell-based; conditions: observed by the Applicant
Excerpt: International Patent Application, Publication Number WO2000028074 describes a method of screening compounds to determine their ability to kill clinically latent microorganisms. […] This observation has necessitated the development of novel antimicrobials which may be used to kill clinically latent microorganisms.
By way of example, WO2000028074 describes a suitable method of screening compounds to determine their ability to kill clinically latent microorganisms. A typical method may include the following steps: • (1) growing a bacterial culture to stationery phase; • (2) treating the stationery phase culture with one or more antimicrobial agents at a concentration and or time sufficient to kill growing bacteria, thereby selecting a phenotypically resistant sub-population; • (3) incubating a sample of the phenotypically resistant subpopulation with one or more test compounds or agents; and • (4) assessing any antimicrobial effects against the phenotypically resistant subpopulation.

[3] = tested on: log phase Staphylococcus aureus; test: Chequerboard analysis of HT00800059 and HT61 against log phase Staphylococcus aureus; type: cell-based, Staphylococcus aureus (Oxford)
Description: as §1, §2, §3, §4
(§7) HT61 was dissolved in DMSO to the stock concentration of 10 mg/ml.
as §5
The drugs were first diluted as follows: • 28.8 μl of HT61 at 10 mg/ml was added into 271.2 μl of H2O followed by diluting 2 fold for 6 times.
Both drugs were mixed as following pattern: 10 μl of HT00800059 from each dilution was added into the wells of a 96 well plate from top to bottom and 10 μl of HT61 from each dilution was added to the same 96 well plate from left to right. After addition of 280 μl log phase cell suspension, the final concentrations of drugs for each well in the 96 well plate are shown in the table below.
Incubation of the compounds with the bacterial suspension was carried out for 24 hours. The kill effect of the drug combination and signal drug MIC was measured by optical density reading at 405 nm with a plate reader (Bio TEK). The MIC concentration was determined as the lowest concentration of drug which inhibits the bacterial growth.
as §6

[4] = tested on: stationary phase Staphylococcus aureus; test: In vitro efficacy test against stationary phase Staphylococcus aureus (CFU counts); type: cell-based, Staphylococcus aureus (Oxford); conditions: CFU counts over 8 hours
Description: as §1
Stationary phase growth of methicilin sensitive Staphylococcus aureus (MSSA) was carried out as follows:
Subculture of the bacterial strains on agar plates: Overnight S. aureus bacterial cultures were stored at −70° C. with 20% glycerol (cryoprotectant). A loopful of the frozen cells was streaked on a blood agar plate which was incubated at 37° C. overnight (or longer) as culture plate A. A single colony of each strain from the culture plate A was streaked on the blood agar plate which was incubated at 37° C. overnight (or longer) as culture plate B. The culture plate B was stored at 4° C. for a week and served as the initial inoculation plate.
Bacterial growth in broth culture: A single colony from culture plate B was inoculated in 10 ml of nutrient broth (No. 2, (Oxoid)), which was incubated overnight at 37° C. with continuous shaking at 120 rpm. 200 μl of the overnight culture was added into a 500 ml bottle containing 100 ml of nutrient broth. The 100 ml culture was incubated at 37° C. with continuous shaking for 6 to 7 days. Viability of the cultures is estimated by colony forming unit (CFU) counts at 2 hour intervals for the first 24 hours and 12 to 24 hours afterwards.
Colony Forming Unit (CFU) counts were performed as follows: From serial 10-fold dilutions of the cultures, 100 μl samples were added to one third of blood agar plates (Oxoid) in triplicate. CFUs were counted using an aCoLyte colony counter (Synbiosis) after incubation of the plates at 37° C. for 24 hours or longer.
7 day old stationary phase cultures were used. The stationary phase cultures were diluted to obtain CFU counts in the cell suspension of 10^6 to 10^7 CFU/ml. The cell suspension was used to test drug sensitivity.
as §7
HT00800059 was dissolved in H2O to the stock solution 10 mg/ml
The drugs were first diluted as follows: • 7.2 μl of HT61 at 10 mg/ml was added into 292.8 μl of H2O followed by diluting 2 fold, 3 times. • 57.6 μl of HT00800059 at 10 mg/ml was added into 242.4 μl of H2O followed by diluting 2 fold, 2 times. • 10 μl of HT00800059 from each dilution was added into the wells of a 96 well plate followed by the addition of 290 μl of bacterial cell suspension to make the final concentrations of HT00800059 at 64, 32 and 0 μg/ml. • […]
In combination of two drugs: 10 μl of HT61 from each dilution was added into the wells of a 96 well plate followed by the addition of 10 μl of HT00800059 from each dilution. […]

MIC after combination ([1]; HT230/HT00800059 chequerboard): 1 µg/mL
MIC before combination ([1]; HT230/HT00800059 chequerboard): 4 µg/mL
MIC [1]: 4 µg/mL
HT230 MIC in combination ([1]; with HT00800059 at 128 μg/ml): 4 µg/mL
HT230 MIC in combination ([1]; with HT00800059 at 256 μg/ml): 1 µg/mL
Compound: Cc1cc(N2CCC(Cc3ccccc3)C2)c2cc(Oc3ccccc3)ccc2n1 (stereo not shown) [HT230, 4-(3-benzylpyrrolidin-1-yl)-2-methyl-6-phenoxyquinoline]
optical density reading at 405 nm ([1]; HT230 0.03125 μg/ml): 1.237
optical density reading at 405 nm ([1]; HT230 0.0625 μg/ml): 1.312
optical density reading at 405 nm ([1]; HT230 0.125 μg/ml): 1.317
optical density reading at 405 nm ([1]; HT230 0.25 μg/ml): 1.401
optical density reading at 405 nm ([1]; HT230 0.5 μg/ml): 1.135
optical density reading at 405 nm ([1]; HT230 1 μg/ml): 1.160
optical density reading at 405 nm ([1]; HT230 2 μg/ml): 1.190
optical density reading at 405 nm ([1]; HT230 4 μg/ml): 0.365
optical density reading at 405 nm ([1]; HT230 8 μg/ml): 0.363
optical density reading at 405 nm ([1]; HT230 16 μg/ml): 0.357
optical density reading at 405 nm ([1]; HT230 32 μg/ml): 0.406

MIC after combination ([1]; HT281/HT00800059 chequerboard): 4 µg/mL
MIC before combination ([1]; HT281/HT00800059 chequerboard): 8 µg/mL
MIC [1]: 8 µg/mL
Compound: Cc1cc(N2CCC(Cc3ccccc3)C2)c2cc(NC(=O)c3ccccc3)ccc2n1 (stereo not shown) [HT281, N-[4-(3-benzylpyrrolidin-1-yl)-2-methylquinolin-6-yl]benzamide]
optical density reading at 405 nm ([1]; HT281 0.125 μg/ml): 1.334
optical density reading at 405 nm ([1]; HT281 0.25 μg/ml): 1.281
optical density reading at 405 nm ([1]; HT281 0.5 μg/ml): 1.378
optical density reading at 405 nm ([1]; HT281 0.625 μg/ml): 1.256
optical density reading at 405 nm ([1]; HT281 1 μg/ml): 1.263
optical density reading at 405 nm ([1]; HT281 2 μg/ml): 1.157
optical density reading at 405 nm ([1]; HT281 4 μg/ml): 1.080
optical density reading at 405 nm ([1]; HT281 8 μg/ml): 0.361
optical density reading at 405 nm ([1]; HT281 16 μg/ml): 0.364
optical density reading at 405 nm ([1]; HT281 32 μg/ml): 0.396
optical density reading at 405 nm ([1]; HT281 64 μg/ml): 0.558

MIC ([3]; Staphylococcus aureus, drug alone, Plate 1, read-out: MIC): 8 µg/mL
MIC ([3]; Staphylococcus aureus, read-out: alone MIC): 16 µg/mL
MIC ([3]; Staphylococcus aureus, with HT00800059 128 μg/ml, Plate 1, read-out: MIC of HT61 + HT00800059): 4 µg/mL
MIC ([3]; drug alone, Plate 2): 8 µg/mL
MIC of HT61 + HT00800059 ([3]; with HT00800059 128 μg/ml, Plate 2): 4 µg/mL
HT61 MIC in combination ([3]; with HT00800059 at 128 μg/ml): 8 µg/mL
Compound: Cc1nc2ccc(Oc3ccccc3)cc2c2c1CCN2CCc1ccccc1 [HT61, 4-methyl-1-(2-phenylethyl)-8-phenoxy-2,3-dihydro-1H-pyrrolo[3,2-c]-quinoline]
activity against stationary phase S. aureus ([4]; 8 μg/ml): low activity
activity against stationary phase S. aureus ([4]; 4 and 2 μg/ml): no observed activity

The next lines start with the compound.

Compound: CC[C@H]1OC(=O)[C@H](C)[C@@H](O[C@H]2C[C@@](C)(OC)[C@@H](O)[C@H](C)O2)[C@H](C)[C@@H](O[C@@H]2O[C@H](C)C[C@H](N(C)C)[C@H]2O)[C@](C)(O)C[C@@H](C)CN(C)[C@H](C)[C@@H](O)[C@]1(C)O [azithromycin]
activity against clinically latent microorganisms [2]: little or no activity

Compound: CC(=O)NC[C@H]1CN(c2ccc(N3CCOCC3)c(F)c2)C(=O)O1 [linezolid]
activity against clinically latent microorganisms [2]: little or no activity
